Laboratory results taken from the supplement of paper PMC10307832.

What was measured:
Experiment in all cases: relative viability (nuclei count vs DMSO), 5 days (fraction); higher = more cells survive
[1] = compound: CC1CC(=O)N(C2=CN=C(N=C2N1C3CCCC3)NC4=C(C=C(C=C4)C(=O)NC5CCN(CC5)C)OC)C [NPK76-II-72-1] + CC(C)C[C@H](NC(=O)[C@H](Cc1ccccc1)NC(=O)c1cnccn1)B(O)O [Bortezomib] (partner 0.002 µM)
Summary of the method: (§1)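 Relative viability divides the nuclei count in treated wells by that in vehicle wells. Lung cancer cell lines were seeded in 1536-well plates, dosed by pin tool the next day, and fixed and stained after 5 days in one step with final 0.05% Triton X-100, 1% formaldehyde and 1 ug/ml Hoechst. Dosing was a single drug or a fixed anchor-drug dose plus five library-drug doses (not always all listed) in √10 steps, and values are medians of duplicate plates imaged at 4×.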

[2] = compound: CC1CC(=O)N(C2=CN=C(N=C2N1C3CCCC3)NC4=C(C=C(C=C4)C(=O)NC5CCN(CC5)C)OC)C [NPK76-II-72-1] + CS(=O)(=O)CCNCc1ccc(-c2ccc3ncnc(Nc4ccc(OCc5cccc(F)c5)c(Cl)c4)c3c2)o1 [Lapatinib] (partner 2 µM)
Summary of the method: as §1

[3] = compound: CC1CC(=O)N(C2=CN=C(N=C2N1C3CCCC3)NC4=C(C=C(C=C4)C(=O)NC5CCN(CC5)C)OC)C [NPK76-II-72-1] + Cc1cc(Nc2cc(N3CCN(C)CC3)nc(Sc3ccc(NC(=O)C4CC4)cc3)n2)n[nH]1 [Tozasertib] (partner 0.1 µM)
Summary of the method: as §1

[4] = compound: CC1CC(=O)N(C2=CN=C(N=C2N1C3CCCC3)NC4=C(C=C(C=C4)C(=O)NC5CCN(CC5)C)OC)C [NPK76-II-72-1] + O=C(c1cc(Cc2n[nH]c(=O)c3ccccc23)ccc1F)N1CCN(C(=O)C2CC2)CC1 [Olaparib] (partner 8 µM)
Summary of the method: as §1

Cell Line	relative viability ([1]; first compound 0.01 µM)	relative viability ([1]; first compound 0.03162 µM)	relative viability ([1]; first compound 0.1 µM)	relative viability ([1]; first compound 0.3162 µM)	relative viability ([1]; first compound 1 µM)	relative viability ([2]; first compound 0.01 µM)	relative viability ([2]; first compound 0.03162 µM)	relative viability ([2]; first compound 0.1 µM)	relative viability ([2]; first compound 0.3162 µM)	relative viability ([2]; first compound 1 µM)	relative viability ([3]; first compound 0.01 µM)	relative viability ([3]; first compound 0.03162 µM)	relative viability ([3]; first compound 0.1 µM)	relative viability ([3]; first compound 0.3162 µM)	relative viability ([3]; first compound 1 µM)	relative viability ([4]; first compound 0.01 µM)	relative viability ([4]; first compound 0.03162 µM)	relative viability ([4]; first compound 0.1 µM)	relative viability ([4]; first compound 0.3162 µM)	relative viability ([4]; first compound 1 µM)
HCC-827	0.975	1.11	1.05	0.956	1.29	0.194	0.211	0.173	0.171	0.224	0.399	0.416	0.417	0.409	0.476	0.615	0.649	0.66	0.608	0.619
SK-LU-1	0.931	1.15	0.829	1.23	1.42	0.897	0.867	0.96	0.776	1.08	0.341	0.351	0.361	0.305	0.38	0.432	0.49	0.475	0.511	0.587
NCI-H1975	0.34	0.37	0.292	0.41	0.402	0.813	0.878	0.928	0.886	0.955	0.731	0.893	0.673	0.665	0.912	0.769	0.841	0.716	0.811	0.75
NCI-H1651	0.95	0.954	0.903	0.9	0.991	0.835	0.928	0.905	0.807	0.837	0.632	0.919	0.661	0.388	0.759	0.186	0.168	0.185	0.168	0.171
LCLC-97TM1	0.638	0.727	0.561	0.606	0.703	–	0.887	0.859	0.739	1.32	0.177	0.31	0.215	0.188	0.228	0.357	0.394	0.346	0.249	0.424
NCI-H727	0.881	0.981	0.938	0.9	0.869	0.97	1.04	0.81	0.979	0.884	0.641	0.616	0.545	0.539	0.649	0.957	0.774	0.655	0.699	0.679
NCI-H1355	1.06	1.12	1.03	1.13	1.19	0.922	0.933	0.967	0.931	1.02	0.534	0.582	0.605	0.543	0.609	0.682	0.755	0.7	0.692	0.841
HOP-62	0.743	0.754	0.433	0.916	0.824	1.08	0.958	1.02	0.911	1.22	0.333	0.382	0.397	0.328	0.413	0.389	0.351	0.466	–	0.465
NCI-H2085	1.05	1.01	0.977	0.953	1.02	0.748	0.735	0.763	0.714	0.78	0.802	0.79	0.812	0.825	0.855	0.718	0.77	0.783	0.726	0.83
